Experimental data: ChEMBL document CHEMBL4118092, “Synthesis and Activity of a New Series of Antileishmanial Agents” (ACS Med Chem Lett, 2017)

What was measured:
Leishmania donovani [1] = test: Antileishmanial activity against Leishmania donovani axenic amastigotes after 72 hrs by CellTiter reagent based assay; assay type: functional, organism-based
Leishmania donovani [2] = test: Antileishmanial activity against Leishmania donovani axenic amastigotes infected in mouse J774 cells after 72 hrs by Draq5 staining based assay; assay type: functional, organism-based; conditions: J774, 72 h
J774.A1 = test: Cytotoxicity against mouse J774.A1 cells after 72 hrs by MTS assay; assay type: cell-based; conditions: J774.A1, 72 h
[3] = Kinetic solubility of the compound in pH 7.4 PBS buffer; assay type: physicochemical; conditions: read-out: Kinetic_solubility

Row | Compound | IC50 (Leishmania donovani [2]) | solubility kinetic [3] | IC50 (Leishmania donovani [1]) | IC50 (J774.A1)
1 | Cc1nn(-c2ccc3c(N)ncnc3c2)c2c1C(=O)CC(C)(C)C2 | 1330 nM | – | 2420 nM | > 50 µM
2 | COCCCNc1cc(-n2nc(C)c3c2CN(C(=O)COC)CC3=O)ccc1C(N)=O | 3580 nM | – | 4480 nM | > 50 µM
3 | CCC(=O)N1CC(=O)c2c(C)nn(-c3ccc(C(N)=O)c(NCCCOC)c3)c2C1 | 3540 nM | – | 6430 nM | > 50 µM
4 | COCCCNc1cc(-n2nc(C)c3c2CN(C(N)=O)CC3=O)ccc1C(N)=O | > 10000 nM | – | > 20000 nM | > 50 µM
5 | COCCCNc1cc(-n2nc(C)c3c2CN(C(=O)c2ccc(C)cc2)CC3=O)ccc1C(N)=O | 1750 nM | – | 2600 nM | 26.3 µM
6 | COCCCNc1cc(-n2nc(C)c3c2CN(C(=O)C(C)C)CC3=O)ccc1C(N)=O | 3540 nM | – | 1900 nM | 37.3 µM
7 | COCCCNc1cc(-n2nc(C)c3c2CN(Cc2ccccc2)CC3=O)ccc1C(N)=O | 6330 nM | – | 2290 nM | > 50 µM
8 | COCCCNc1cc(-n2nc(C)c3c2CN(C(=O)NCc2ccccc2)CC3=O)ccc1C(N)=O | > 10000 nM | – | > 20000 nM | > 50 µM
9 | COCCCNc1cc(-n2nc(C)c3c2CN(C(=O)C2CCCC2)CC3=O)ccc1C(N)=O | 1520 nM | – | 2990 nM | > 50 µM
10 | CCCCCCCCCCCCCCCCOP(=O)([O-])OCC[N+](C)(C)C [MILTEFOSINE] | 1430 nM | – | 3260 nM | > 50 µM
11 | C[C@@H]1C[C@H]2O[C@@H]2/C=C\C=C\C(=O)Cc2c(Cl)c(O)cc(O)c2C(=O)O1 [RADICICOL] | 290 nM | – | 620 nM | 2.35 µM
12 | CC1(C)CC(=O)c2c(C(F)(F)F)nn(-c3ccc(C(N)=O)c(N[C@H]4CC[C@H](O)CC4)c3)c2C1 [SNX-2112] | 610 nM | – | 420 nM | < 0.06 µM

Second part, led by results:

Row | IC50 (Leishmania donovani [2]) | solubility kinetic [3] | Compound | IC50 (Leishmania donovani [1]) | IC50 (J774.A1)
13 | 880 nM | – | COCCCNc1cc(-n2nc(C)c3c2CC(C)(C)CC3=O)ccc1C(N)=O | 650 nM | 3.52 µM
14 | 1060 nM | > 490 µM | COCCCNc1cc(-n2nc(C)c3c2CN(C(C)=O)CC3=O)ccc1C(N)=O | 13900 nM | > 50 µM
15 | 5380 nM | – | COCCCNc1cc(-n2nc(C)c3c2CN(S(C)(=O)=O)CC3=O)ccc1C(N)=O | > 20000 nM | 25.5 µM
16 | > 10000 nM | – | COCCCNc1cc(-n2nc(C)c3c2CNCC3=O)ccc1C(N)=O | 3900 nM | > 50 µM
17 | > 10000 nM | – | COCCCNc1cc(-n2nc(C)c3c2CCCC3=O)ccc1C(N)=O | > 25000 nM | > 50 µM
